Measured values from article PMC8253220, “Molecular design, synthesis and in vitro biological evaluation of thienopyrimidine–hydroxamic acids as chimeric kinase HDAC inhibitors: a challenging approach to combat cancer” (Journal of Enzyme Inhibition and Medicinal Chemistry, 2021).
Several values for one entry are separate records, joined by “and”; a condition that tells them apart may be missing. Equal entries are not always repeated.

Columns and labels:
EGFR = EGFR (Homo sapiens, UniProt P00533); experiment: In vitro EGFR tyrosine kinase inhibitory assay (Z'-LYTE, SelectScreen); format: biochemical; settings: 10 µM single dose
Sequence of EGFR (P00533 25-1210): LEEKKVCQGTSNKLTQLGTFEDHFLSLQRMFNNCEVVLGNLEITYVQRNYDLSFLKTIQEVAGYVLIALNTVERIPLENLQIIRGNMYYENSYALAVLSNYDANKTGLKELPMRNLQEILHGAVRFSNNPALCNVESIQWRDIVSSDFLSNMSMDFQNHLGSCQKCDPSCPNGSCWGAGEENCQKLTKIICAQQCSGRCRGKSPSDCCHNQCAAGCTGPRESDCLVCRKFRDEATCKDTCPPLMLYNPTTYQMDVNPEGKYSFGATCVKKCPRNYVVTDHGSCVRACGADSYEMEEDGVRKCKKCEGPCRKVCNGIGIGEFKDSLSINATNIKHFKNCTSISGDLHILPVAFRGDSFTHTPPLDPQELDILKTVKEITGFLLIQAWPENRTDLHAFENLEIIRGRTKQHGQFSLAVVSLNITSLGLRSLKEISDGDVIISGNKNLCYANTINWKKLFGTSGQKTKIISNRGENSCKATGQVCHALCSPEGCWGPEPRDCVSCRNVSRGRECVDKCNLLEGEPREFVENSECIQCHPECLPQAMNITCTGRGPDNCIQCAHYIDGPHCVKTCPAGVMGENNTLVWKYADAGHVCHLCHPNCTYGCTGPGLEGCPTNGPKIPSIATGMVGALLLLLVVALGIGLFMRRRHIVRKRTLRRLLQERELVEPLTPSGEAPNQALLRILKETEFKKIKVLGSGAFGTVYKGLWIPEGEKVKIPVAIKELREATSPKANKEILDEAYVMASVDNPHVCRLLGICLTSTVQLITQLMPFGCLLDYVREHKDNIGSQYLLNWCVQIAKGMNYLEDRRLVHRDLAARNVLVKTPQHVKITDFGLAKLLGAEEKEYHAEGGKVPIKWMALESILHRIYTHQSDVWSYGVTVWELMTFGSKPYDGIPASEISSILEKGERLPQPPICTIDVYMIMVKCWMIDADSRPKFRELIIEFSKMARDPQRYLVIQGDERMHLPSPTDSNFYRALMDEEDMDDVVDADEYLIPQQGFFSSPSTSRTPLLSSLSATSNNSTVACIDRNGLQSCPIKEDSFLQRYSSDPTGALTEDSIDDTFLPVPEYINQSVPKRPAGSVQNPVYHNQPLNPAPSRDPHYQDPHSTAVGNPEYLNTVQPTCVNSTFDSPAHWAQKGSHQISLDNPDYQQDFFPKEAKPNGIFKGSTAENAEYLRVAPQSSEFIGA
In short: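 Z'-LYTE fluorescence coupled-enzyme format, read-out based on differential protease cleavage of phosphorylated vs non-phosphorylated peptide. Compounds screened at 10 µM single dose for % inhibition, then selected ones tested at 0.1 nM–10 µM for IC50 by curve fitting.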

NCI-H460 = experiment: NCI one-dose screen; format: cell-based, human; settings: NSCLC NCI-H460, 10 µM single dose
In short: (§1)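 One concentration (10 μM) applied to each line of the full NCI-60 panel; percent growth compared against untreated cells.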

SN12C = experiment: NCI one-dose screen; format: cell-based, human; settings: Renal SN12C, 10 µM single dose
In short: as §1

HT29 = experiment: NCI one-dose screen; format: cell-based, human; settings: Colon HT29, 10 µM single dose
In short: as §1

CCRF-CEM = experiment: NCI one-dose screen; format: cell-based, human; settings: Leukemia CCRF-CEM, 10 µM single dose
In short: as §1

UO-31 = experiment: NCI one-dose screen; format: cell-based, human; settings: Renal UO-31, 10 µM single dose
In short: (§2)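 Single dose of 10 μM tested across the full NCI-60 cell panel. Values are percent growth inhibition relative to untreated control cells, following standard NCI methodology.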

K-562 = experiment: NCI one-dose screen; format: cell-based, human; settings: Leukemia K-562, 10 µM single dose
In short: as §1

U251 = experiment: NCI one-dose screen; format: cell-based, human; settings: CNS U251, 10 µM single dose
In short: as §2

SK-MEL-28 = experiment: NCI one-dose screen; format: cell-based, human; settings: Melanoma SK-MEL-28, 10 µM single dose
In short: (§3)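 At 10 μM, a single concentration, compounds were evaluated for antiproliferative effect in the NCI 60-line screen, with growth expressed relative to untreated control cells.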

MDA-MB-435 = experiment: NCI one-dose screen; format: cell-based, human; settings: Melanoma MDA-MB-435, 10 µM single dose
In short: as §1

NCI-H322M = experiment: NCI one-dose screen; format: cell-based, human; settings: NSCLC NCI-H322M, 10 µM single dose
In short: as §1

SNB-75 = experiment: NCI one-dose screen; format: cell-based, human; settings: CNS SNB-75, 10 µM single dose
In short: as §2

NCI-H23 = experiment: NCI one-dose screen; format: cell-based, human; settings: NSCLC NCI-H23, 10 µM single dose
In short: as §2

SK-MEL-5 = experiment: NCI one-dose screen; format: cell-based, human; settings: Melanoma SK-MEL-5, 10 µM single dose
In short: as §1

BT-549 = experiment: NCI one-dose screen; format: cell-based, human; settings: Breast BT-549, 10 µM single dose
In short: as §1

HCT-15 = experiment: NCI one-dose screen; format: cell-based, human; settings: Colon HCT-15, 10 µM single dose
In short: as §1

OVCAR-5 = experiment: NCI one-dose screen; format: cell-based, human; settings: Ovarian OVCAR-5, 10 µM single dose
In short: as §1

OVCAR-4 = experiment: NCI one-dose screen; format: cell-based, human; settings: Ovarian OVCAR-4, 10 µM single dose
In short: as §1

MDA-MB-468 = experiment: NCI one-dose screen; format: cell-based, human; settings: Breast MDA-MB-468, 10 µM single dose
In short: as §2

HL-60(TB) = experiment: NCI one-dose screen; format: cell-based, human; settings: Leukemia HL-60(TB), 10 µM single dose
In short: as §3

OVCAR-8 = experiment: NCI one-dose screen; format: cell-based, human; settings: Ovarian OVCAR-8, 10 µM single dose
In short: as §1

PC-3 = experiment: NCI one-dose screen; format: cell-based, human; settings: Prostate PC-3, 10 µM single dose
In short: as §3

NCI/ADR-RES = experiment: NCI one-dose screen; format: cell-based, human; settings: Ovarian NCI/ADR-RES, 10 µM single dose
In short: as §1

full NCI 60 cell panel = experiment: NCI one-dose screen, whole panel statistics; format: cell-based, human; settings: 1.00E-5 Molar; for Mean Growth Percent: mean over panel
In short: as §3

Row | Compound | melting point | inhibition at 10 µM (EGFR) | Growth Percent (NCI-H460) | Growth Percent (SN12C) | Growth Percent (HT29) | Growth Percent (CCRF-CEM) | Growth Percent (UO-31) | Growth Percent (K-562) | Growth Percent (U251) | Growth Percent (SK-MEL-28) | Growth Percent (MDA-MB-435) | Growth Percent (NCI-H322M) | Growth Percent (SNB-75) | Growth Percent (NCI-H23) | Growth Percent (SK-MEL-5) | Growth Percent (BT-549) | Growth Percent (HCT-15) | Growth Percent (OVCAR-5) | Growth Percent (OVCAR-4) | Growth Percent (MDA-MB-468) | other results
1 | Cc1c(C(=O)NO)sc2ncnc(Nc3ccc(NC(=O)Nc4ccccc4)cc3)c12 [Compound 7a, 1–(4-(6-(hydroxycarbamoyl)-5-methylthieno[2,3-d]pyrimidin-4-ylamino)phenyl)-3-phenylurea] | > 200 °C | 48% | 100.3% and 100.39% | 102.8% and 102.86% | 94.7% and 94.78% | 97.4% and 97.44% | 74.6% and 74.65% | 105.9% and 105.92% | 89.3% and 89.34% | 104.3% and 104.39% | 102.0% and 102.09% | 98.4% and 98.47% | 75.5% and 75.56% | 101.19% | 101.0% and 101.07% | 87.6% | 99.1% and 99.16% | 105.3% and 105.35% | 94.1% and 94.11% | 111.9% and 111.92% | Growth Percent (HL-60(TB)): 102.2% and 102.25%; Growth Percent (OVCAR-8): 106.3% and 106.33%; Growth Percent (PC-3): 97.3% and 97.34%; Growth Percent (NCI/ADR-RES): 102.1% and 102.16%; Delta (one dose mean graph) (full NCI 60 cell panel): 24.69%; Range (one dose mean graph) (full NCI 60 cell panel): 48.09%; Mean Growth Percent (full NCI 60 cell panel): 99.34%
2 | Cc1c(C(=O)NCCCC(=O)NO)sc2ncnc(Nc3ccc(Cl)cc3)c12 [Compound 20c, 4–(4-chlorophenylamino)-N-(4-(hydroxyamino)-4-oxobutyl)-5-methylthieno[2,3-d]pyrimidine-6-carboxamide] | 212 °C | 96% | 101.9% and 101.95% | 100.0% and 100.04% | 108.2% and 108.21% | 108.0% and 108.09% | 81.5% and 81.51% | 108.0% | 103.1% and 103.12% | 112.3% and 112.39% | 103.8% and 103.83% | 101.3% and 101.35% | 79.1% and 79.17% | 94.9% and 94.98% | 100.0% | 116.5% | 99.0% and 99.06% | 109.8% and 109.86% | 109.4% | 110.9% and 110.91% | Mean % inhibition EGFR (EGFR): 91%; Growth Percent (HL-60(TB)): 103.4% and 103.41%; Growth Percent (OVCAR-8): 105.5%; Growth Percent (PC-3): 101.4% and 101.49%; Growth Percent (NCI/ADR-RES): 100.5% and 100.58%; Delta (one dose mean graph) (full NCI 60 cell panel): 23.92%; Range (one dose mean graph) (full NCI 60 cell panel): 73.06%; Mean Growth Percent (full NCI 60 cell panel): 103.09%
3 | Cc1c(C(=O)NCCC(=O)NO)sc2ncnc(Nc3ccc(Cl)cc3)c12 [Compound 19c, 4–(4-chlorophenylamino)-N-(3-(hydroxyamino)-3-oxopropyl)-5-methylthieno[2,3-d]pyrimidine-6-carboxamide] | 282 °C | 78% | 100.4% and 100.45% | 101.7% and 101.77% | 102.2% and 102.22% | 104.7% and 104.72% | 79.9% and 79.99% | 106.4% and 106.41% | 104.8% and 104.84% | 112.1% | 102.9% and 102.91% | 105.7% and 105.79% | 91.7% and 91.75% | 102.7% | 102.4% and 102.44% | 103.5% and 103.54% | 99.7% and 99.76% | 110.3% and 110.34% | 112.3% and 112.39% | 119.7% and 119.73% | Growth Percent (HL-60(TB)): 104.5% and 104.56%; Growth Percent (OVCAR-8): 104.1% and 104.13%; Growth Percent (PC-3): 110.4% and 110.47%; Growth Percent (NCI/ADR-RES): 105.4% and 105.48%; Delta (one dose mean graph) (full NCI 60 cell panel): 24.83%; Range (one dose mean graph) (full NCI 60 cell panel): 44.72%; Mean Growth Percent (full NCI 60 cell panel): 104.82%
